Molecular target: T1, RIPK1 (receptor interacting serine/threonine protein kinase 1) (Homo sapiens, UniProt Q13546)
T1 construct: Flag-RIPK1 immunoprecipitated from HEK293T cells
T1 sequence (Q13546 1-671): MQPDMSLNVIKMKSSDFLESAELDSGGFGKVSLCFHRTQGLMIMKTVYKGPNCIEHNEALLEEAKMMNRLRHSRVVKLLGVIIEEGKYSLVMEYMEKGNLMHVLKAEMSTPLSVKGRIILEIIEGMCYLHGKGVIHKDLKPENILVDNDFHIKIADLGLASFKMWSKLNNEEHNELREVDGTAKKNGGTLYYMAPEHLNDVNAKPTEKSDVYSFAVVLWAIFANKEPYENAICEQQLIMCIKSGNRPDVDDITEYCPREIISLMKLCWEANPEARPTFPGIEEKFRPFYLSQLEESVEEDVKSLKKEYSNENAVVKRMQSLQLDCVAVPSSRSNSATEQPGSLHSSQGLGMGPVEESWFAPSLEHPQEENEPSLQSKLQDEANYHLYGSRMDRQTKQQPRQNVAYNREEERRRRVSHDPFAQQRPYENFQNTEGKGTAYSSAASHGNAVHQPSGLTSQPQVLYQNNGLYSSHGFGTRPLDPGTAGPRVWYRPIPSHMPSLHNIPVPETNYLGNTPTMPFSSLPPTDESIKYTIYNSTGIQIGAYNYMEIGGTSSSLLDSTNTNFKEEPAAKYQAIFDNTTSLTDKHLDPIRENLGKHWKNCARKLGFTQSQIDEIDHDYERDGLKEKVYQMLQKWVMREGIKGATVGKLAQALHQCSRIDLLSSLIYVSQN
Assay: in vitro kinase assay on immunoprecipitated Flag-RIPK1 (Kinase-Glo; p-S166 western blot)
Type: biochemical

IC50: 366 nM
Compound: CN1C(=O)[C@@H](Cc2c[nH]c3c(Cl)c(F)ccc23)N(C=O)C1=O [ZJU-37]

Source: PMC8975999, “Inhibition of RIPK1 by ZJU-37 promotes oligodendrocyte progenitor proliferation and remyelination via NF-κB pathway” (Cell Death Discovery, 2022)
